# Data taken from patent US11986480B2, “Heterocyclic compound” (TOHOKU UNIVERSITY, priority 2017, dated 2024).
# Structures can show the parent of a compound that is named as a salt.
# Biological target: Brd4 (Homo sapiens, UniProt O60885)
# Experiment: Test Example 3: HeLa cells, Western blot Brd4/actin (Testing Method C)
# Type: cell-based
# Set-up: endogenous in cells; host or cells: HeLa
# Conditions: BRD4, 1 uM, 24 hours, 1 or less = degradation promoted
# Description: Test Example 3: Evaluation Using HeLa Cell (Testing Method C)
# HeLa cells were inoculated to Dulbecco's Modified Eagle Medium (DMEM) and cultured for 24 hours. A test compound (specifically, compounds of Examples 47 to 52, 59 and 60) was added thereto at the final concentration shown in Table 2, followed by incubation for 24 hours under conditions of 37° C./5% CO2. The cells were washed with PBS three times and treated with a cell lysis solution containing a proteolytic enzyme inhibitor to obtain a cell extract. The cell extract was subjected to SDS-PAGE. After the electrophoresis, Brd4, FKBP12 or MetAP2 and actin were detected by Western blot. The ratio of the Brd4, FKBP12 or MetAP2/actin value of the drug-treated cells to the Brd4, FKBP12 or MetAP2/actin value of a control group in drug-untreated cells was regarded as an activity value. A value of 1 or less represents that degradation of Brd4, FKBP12 or MetAP2 was promoted.
row,SMILES,Activity value (Brd4/actin of drug-treated cells relative to drug-untreated control)
1,"Cc1sc2c(c1C)C(c1ccc(Cl)cc1)=N[C@@H](CC(=O)NCCOCCOCCOCCNC(=O)c1nc3c(=O)[nH]c(N)nc3n1Cc1ccc(F)cc1)c1nnc(C)n1-2 [Example 47, 2-Amino-N-(14-((6S)-4-(4-chlorophenyl)-2,3,9-trimethyl-6H-thieno[3,2-f][1,2,4]triazolo[4,3-a][1,4]diazepin-6-yl)-13-oxo-3,6,9-trioxa-12-azatetradec-1-yl)-9-(4-fluorobenzyl)-6-oxo-6,9-dihydro-1H-purine-8-carboxamide]",0.4
2,"CC(=O)N[C@@H](CSc1nc2c(=O)[nH]c(N)nc2n1Cc1ccc(C)cc1)C(=O)NCCOCCOCCOCCNC(=O)C[C@@H]1N=C(c2ccc(Cl)cc2)c2c(sc(C)c2C)-n2c(C)nnc21 [Example 49, N^2-Acetyl-S-(2-amino-9-(4-methylbenzyl)-6-oxo-6,9-dihydro-1H-purin-8-yl)-N-(14-((6S)-4-(4-chlorophenyl)-2,3,9-trimethyl-6H-thieno[3,2-f][1,2,4]triazolo[4,3-a][1,4]diazepin-6-yl)-13-oxo-3,6,9-trioxa-12-azatetradec-1-yl)-L-cysteinamide]",0.8
3,"CC(=O)N[C@@H](CSc1nc2c(=O)[nH]c(N)nc2n1Cc1ccc(Cl)cc1)C(=O)NCCOCCOCCOCCNC(=O)C[C@@H]1N=C(c2ccc(Cl)cc2)c2c(sc(C)c2C)-n2c(C)nnc21 [Example 50, N^2-Acetyl-S-(2-amino-9-(4-chlorobenzyl)-6-oxo-6,9-dihydro-1H-purin-8-yl)-N-(14-((6S)-4-(4-chlorophenyl)-2,3,9-trimethyl-6H-thieno[3,2-f][1,2,4]triazolo[4,3-a][1,4]diazepin-6-yl)-13-oxo-3,6,9-trioxa-12-azatetradec-1-yl)-L-cysteinamide]",0.2
4,"CC(=O)N[C@@H](CSc1nc2c(=O)[nH]c(N)nc2n1Cc1ccc(F)cc1)C(=O)NCCOCCOCCOCCNC(=O)C[C@@H]1N=C(c2ccc(Cl)cc2)c2c(sc(C)c2C)-n2c(C)nnc21 [Example 51, N^2-Acetyl-S-(2-amino-9-(4-fluorobenzyl)-6-oxo-6,9-dihydro-1H-purin-8-yl)-N-(14-((6S)-4-(4-chlorophenyl)-2,3,9-trimethyl-6H-thieno[3,2-f][1,2,4]triazolo[4,3-a][1,4]diazepin-6-yl)-13-oxo-3,6,9-trioxa-12-azatetradec-1-yl)-L-cysteinamide]",0.6

# Same assay, conditions: BRD4, 10 uM, 24 hours, 1 or less = degradation promoted
row,SMILES,Activity value (Brd4/actin of drug-treated cells relative to drug-untreated control)
1,"Cc1sc2c(c1C)C(c1ccc(Cl)cc1)=N[C@@H](CC(=O)NCCOCCOCCOCCNC(=O)c1cccc(-c3nc4c(=O)[nH]c(N)nc4n3Cc3ccc(F)cc3)c1)c1nnc(C)n1-2 [Example 48, 3-(2-Amino-9-(4-fluorobenzyl)-6-oxo-6,9-dihydro-1H-purin-8-yl)-N-(14-((6S)-4-(4-chlorophenyl)-2,3,9-trimethyl-6H-thieno[3,2-f][1,2,4]triazolo[4,3-a][1,4]diazepin-6-yl)-13-oxo-3,6,9-trioxa-12-azatetradec-1-yl)benzamide]",0.8
2,"Cc1sc2c(c1C)C(c1ccc(Cl)cc1)=N[C@@H](CC(=O)NCCOCCOCCOCCNC(=O)/C=C/c1nc3c(=O)[nH]c(N)nc3n1Cc1ccc(F)cc1)c1nnc(C)n1-2 [Example 52, (2E)-3-(2-Amino-9-(4-fluorobenzyl)-6-oxo-6,9-dihydro-1H-purin-8-yl)-N-(14-((6S)-4-(4-chlorophenyl)-2,3,9-trimethyl-6H-thieno[3,2-f][1,2,4]triazolo[4,3-a][1,4]diazepin-6-yl)-13-oxo-3,6,9-trioxa-12-azatetradec-1-yl)acrylamide]",0.8

# Test system: EmGFP-HaloTag
# Experiment: Test Example 2: HeLa cells transiently overexpressing EmGFP-HaloTag, Western blot GFP/actin (Testing Method B)
# Type: cell-based
# Conditions: 1 uM, 24 hours, 1 or less = degradation promoted
# Description: Test Example 2: Evaluation Using Cell Transiently Overexpressing EmGFP-HaloTag (Testing Method B)
# HeLa cells were inoculated to Dulbecco's Modified Eagle Medium (DMEM) and cultured for 24 hours. Cells overexpressing EmGFP-HaloTag were obtained by transfection with a plasmid pCMV-EmGFP-HaloTag encoding EmGFP-HaloTag. On the next day, a test compound (specifically, compounds of Examples 8, 12, 16, 21 to 23, 28, 30 and 31) was added thereto at the final concentration shown in Table 2, followed by incubation for 24 hours under conditions of 37° C./5% CO2. The cells were washed with PBS three times and treated with a cell lysis solution containing a proteolytic enzyme inhibitor to obtain a cell extract. The cell extract was subjected to SDS-PAGE. After the electrophoresis, GFP and actin were detected by Western blot. The ratio of the GFP/actin value of the drug-treated cells to the GFP/actin value of a control group in drug-untreated cells was regarded as an activity value. A value of 1 or less represents that degradation of EmGFP-HaloTag was promoted.
row,SMILES,Activity value (GFP/actin of drug-treated cells relative to drug-untreated control)
1,"Nc1nc2c(nc(NCCC(=O)NCCOCCOCCOCCOCCOCCCCCCCl)n2Cc2ccc(F)cc2)c(=O)[nH]1 [Example 8, N^3-(2-Amino-9-(4-fluorobenzyl)-6-oxo-6,9-dihydro-1H-purin-8-yl)-N-(21-chloro-3,6,9,12,15-pentaoxahenicos-1-yl)-β-alaninamide]",0.7
2,"CC(=O)N[C@@H](CSc1cn(Cc2ccc(F)cc2)c(=O)nc1N)C(=O)NCCOCCOCCOCCOCCOCCCCCCCl [Example 21, N^2-Acetyl-S-(4-amino-1-(4-fluorobenzyl)-2-oxo-1,2-dihydropyrimidin-5-yl)-N-(21-chloro-3,6,9,12,15-pentaoxahenicos-1-yl)-L-cysteinamide Trifluoroacetate]",0.3
3,CC(=O)N[C@@H](CSc1nc2c(=O)[nH]c(N)nc2n1Cc1cccc(F)c1)C(=O)NCCOCCOCCOCCOCCOCCCCCCCl [Example 23],0.7
4,"CC(=O)N[C@@H](CSc1nc2c(=O)[nH]c(N)nc2n1C1CCCCC1)C(=O)NCCOCCOCCOCCOCCOCCCCCCCl [Example 28, N^2-acetyl-S-(2-amino-9-cyclohexyl-6-oxo-6,9-dihydro-1H-purin-8-yl)-N-(21-chloro-3,6,9,12,15-pentaoxahenicos-1-yl)-L-cysteinamide]",0.4
5,"CC(=O)N[C@@H](CSc1nc2c(=O)n(C)c(N)nc2n1Cc1ccc(F)cc1)C(=O)NCCOCCOCCOCCOCCOCCCCCCCl [Example 30, N^2-Acetyl-S-(2-amino-9-(4-fluorobenzyl)-1-methyl-6-oxo-6,9-dihydro-1H-purin-8-yl)-N— (21-chloro-3,6,9,12,15-pentaoxahenicos-1-yl)-L-cysteinamide]",0.2
6,"Nc1nc2c(nc(CCCOCCOCCOCCOCCOCCOCCCCCCCl)n2Cc2ccc(F)cc2)c(=O)[nH]1 [Example 31, 2-Amino-8-(25-chloro-4,7,10,13,16,19-hexaoxapentacos-1-yl)-9-(4-fluorobenzyl)-1,9-dihydro-6H-purin-6-one]",0.4

# Same assay, conditions: 10 uM, 24 hours, 1 or less = degradation promoted
row,SMILES,Activity value (GFP/actin of drug-treated cells relative to drug-untreated control)
1,"CC(=O)N[C@@H](CSc1nc2c(=O)[nH]c(N)nc2n1C1CCCC1)C(=O)NCCOCCOCCOCCOCCOCCCCCCCl [Example 12, N^2-Acetyl-S-(2-amino-9-cyclopentyl-6-oxo-6,9-dihydro-1H-purin-8-yl)-N-(21-chloro-3,6,9,12,15-pentaoxahenicos-1-yl)-L-cysteinamide]",0.45
2,"Nc1nc2c(nc(C#CCOCCOCCOCCOCCOCCOCCCCCCCl)n2Cc2ccc(F)cc2)c(=O)[nH]1 [Example 16, 2-Amino-8-(25-chloro-4,7,10,13,16,19-hexaoxapentacos-1-yn-1-yl)-9-(4-fluorobenzyl)-1,9-dihydro-6H-purin-6-one]",0.4
3,"CC(=O)N[C@@H](CSc1nc2c(=O)[nH]c(N)nc2n1Cc1ccccc1F)C(=O)NCCOCCOCCOCCOCCOCCCCCCCl [Example 22, N^2-acetyl-S-(2-amino-9-(2-fluorobonzvl)-6-oxo-6,9-dihydro-1H-purin-8-yl)-N-(21-chloro-3,6,9,12,15-pentaoxahenicos-1-yl)-L-cysteinamide]",0.7
